Columns and labels:
Male Swiss Webster mice [1] = test: Tail suspension test; assay type: in vivo
Excerpt: Compound 1, (7-(2,6-dichlorophenyl)-5-fluoro-2,3-dihydrobenzofuran-2-yl)methanamine, was used to exemplify the effectiveness of compounds of the present invention in the tail suspension test. While not a direct model of depression, the tail suspension test is an assay that can evaluate antidepressant-like effects of drugs. Clinically effective drugs such as Prozac (fluoxetine) are effective in this assay. Specifically, they decrease the amount of time the mice spend immobile after being hung upside down by their tails during the test. It is impossible to determine if a mouse is indeed depressed. However, the fact that clinically effective antidepressants reduce immobility lends predictive validity to the model.
Male Swiss Webster mice (Charles River) weighing 20-35 g were used throughout this study. They were housed in groups of five per cage in an AALAC-accredited facility that was maintained on a 12-h light dark cycle (lights on at 0600 h) and had free access to food and water. Experimental groups consisted of 12 mice, randomly assigned to treatment groups. All experiments were performed between 9:00 AM and noon in accordance to the Guide for the Care and Use of Laboratory Animals as adopted and promulgated by the National Institutes of Health (Pub. 85-23, 1985).
Solutions of Compound 1 and paroxetine were freshly prepared. Compound 1 was dissolved in saline and paroxetine was dissolved in distilled water. All drugs were injected i.p. at a volume of 10 ml/kg body weight. Combination treatments were cotreated, 30 minutes prior to the test.
The procedure followed in this study was a variant of the one originally described by Steru et al. (1985). […] The time spent immobile during a 6-minute test session was automatically recorded. […] Data collected were expressed as a mean of immobility time and statistical analysis was performed using a one-way ANOVA with least significant difference (LSD) post-hoc test.

Male Swiss Webster mice [2] = details: general statement on clinically effective drugs; cited from earlier work

NCC1Cc2cc(F)cc(-c3c(Cl)cccc3Cl)c2O1 (stereo not shown) [Compound 1, (7-(2,6-dichlorophenyl)-5-fluoro-2,3-dihydrobenzofuran-2-yl)methanamine]
produced antidepressant-like effects alone (Male Swiss Webster mice [1]; Compound 1 0.1 mg/kg i.p. alone, 30 minutes prior to test, 6-minute session): Neither

CNCCC(Oc1ccc(C(F)(F)F)cc1)c1ccccc1 (stereo not shown) [Prozac, N-methyl-3-(p-trifluoromethylphenoxy)-3-phenylpropylamine]
effectiveness in the tail suspension assay (decrease of time spent immobile) (Male Swiss Webster mice [2]): effective

Fc1ccc([C@@H]2CCNC[C@H]2COc2ccc3c(c2)OCO3)cc1 [paroxetine, trans-(−)-3-[(1,3-benzodioxol-5-yloxy)methyl]-4-(4-fluo-rophenyl)piperidine]
decrease in immobility time (Male Swiss Webster mice [1]; paroxetine 10 mg/kg i.p. dosed alone): 5%
decrease in immobility time (Male Swiss Webster mice [1]; paroxetine 30 mg/kg i.p. dosed alone): 4%

From US7396857B2, “Therapeutic combinations for the treatment or prevention of depression” (Wyeth, priority 2005, dated 2008)
